The values below come from patent publication US7772271B2 (priority 2004, dated 2010).

For `C=CCNC(=O)Oc1ccc(-c2c(C#N)c3ccc(OC4CCOCC4)cc3n2C2CCC2)cc1` [Compound 3110], the melting point is 167 to 168 °C.

`CCOC(=O)Nc1ccc(-c2c(C#N)c3ccc(OCCOC)cc3n2CC)cc1` [Compound 1368]: the melting point was 175 to 177 °C.

With `N#Cc1c(-c2ccc(NC(=O)OC(C(F)(F)F)C(F)(F)F)cc2)n(C2CCC2)c2cc(OCC3OCCO3)ccc12` [Compound 2657], the melting point is 202 to 205 °C.

`N#Cc1c(-c2ccc(Nc3ccccn3)cc2)n(C2CCC2)c2cc(OC3CCOCC3)ccc12` [Compound 3163] gave a melting point of 211 to 212 °C.

Molecule `N#Cc1c(-c2ccc(NC3CCC3)nc2)n(C2CCC2)c2cc(Oc3ncccn3)ccc12` [Compound 3348] came in with a melting point of 229 to 231 °C.

Regarding `CCn1c(-c2ccc(NC(=O)NC(C)C)cc2)c(C#N)c2ccc(OCCOC)cc21` [Compound 1405], the melting point was in the range of 182 to 185 °C.

For `CCCS(=O)(=O)Nc1ccc(-c2c(C#N)c3ccc(Oc4nccnc4C#N)cc3n2CC2CC2)c(Cl)c1` [Compound 3307], the melting point was in the range of 243 to 246 °C.

The molecule `CCn1c(-c2ccc(NC(=O)OCCF)cc2)c(C#N)c2ccc(OCCOC)cc21` [Compound 1371] gave a melting point of 166 to 168 °C.

`N#Cc1c(-c2ccc(Nc3cccc(OC(F)(F)F)c3)cc2)n(C2CCC2)c2cc(OC3CCOCC3)ccc12` [Compound 3129] yielded a melting point of 108 to 110 °C.

In the case of `CCCNC(=O)Oc1ccc(-c2c(C#N)c3ccc(OC4CCOCC4)cc3n2C2CCC2)cc1` [Compound 2808], the melting point lay within 153 to 154 °C.

Regarding `COc1ccnc(Oc2ccc3c(C#N)c(-c4ccc(NC(=O)O[C@H](C)C5CC5)cc4)n(C4CCC4)c3c2)n1` [Compound 2736], the melting point lay in the range of 161 to 164 °C.

The molecule `CC(C)NC(=O)Nc1ccc(-c2c(C#N)c3cc(OC4COCOC4)ccc3n2C2CCC2)cc1` [Compound 2817] registered a melting point of 179 to 181 °C.

`N#Cc1c(-c2ccc(OC(=O)NC3CCCC3)cc2)n(C2CCC2)c2cc(OC3CCOCC3)ccc12` [Compound 2811] registered a melting point of 168 to 169 °C.

Take `CCn1c(-c2cccc(NC(=O)N3CCN(C)CC3)c2)c(C#N)c2ccc(OC)cc21` [Compound 1375]: the melting point lay in the range of 108 to 120 °C.

Molecule `COCCOc1ccc2c(C#N)c(-c3ccc(C(=O)N4CCCCC4)cc3)n(C3CCC3)c2c1` [Compound 2757] yielded a melting point of 155 to 158 °C.

In turn, `CCCS(=O)(=O)Nc1ccc(-c2c(C#N)c3ccc(Oc4nccc(C)n4)cc3n2CC2CC2)c(C)c1` [Compound 2980] came in with a melting point of 167 to 170 °C.

Take `CCOCCOc1ccc2c(C#N)c(-c3ccc(NC(=O)OC(C)C(F)(F)F)cc3)n(C3CCC3)c2c1` (centres unmarked) [Compound 2636]: the melting point was 122 to 124 °C.

Molecule `CC(C)NC(=O)Nc1c(F)cc(-c2c(C#N)c3ccc(OCCF)cc3n2C2CCC2)cc1F` [Compound 3041] displayed a melting point of 224 to 229 °C.

For `C[C@@H](OC(=O)Nc1ccc(-c2c(C#N)c3ccc(OCCCCn4cncn4)cc3n2C2CCC2)cc1)C(F)(F)F` [Compound 2830], the melting point was 161 to 162 °C.

`N#Cc1c(-c2ccc(NS(=O)(=O)C3CC3)cc2)n(C2CCC2)c2cc(OC3COCOC3)ccc12` [Compound 2928] yielded a melting point of 216 to 217 °C.

Molecule `CC(C)OC(=O)Nc1ccc(-c2c(C#N)c3ccc(OCCCNC4CC4)cc3n2C2CCC2)cc1` [Compound 1430] yielded a melting point of 122 to 125 °C.

`C[C@@H](OC(=O)Nc1ccc(-c2c(C#N)c3ccc(Oc4ncccn4)cc3n2C2CCC2)cc1OC(F)(F)F)C1CC1` [Compound 3034] gave a melting point of 80 to 81 °C.

For `CCNC(=O)Oc1ccc(-c2c(C#N)c3ccc(OC4CCOCC4)cc3n2C2CCC2)cc1` [Compound 2807], the melting point lay within 205 to 207 °C.

In the case of `C[C@@H](OC(=O)Nc1ccc(-c2c(C#N)c3ccc(Oc4ncccn4)cc3n2C2CCC2)cc1)c1ccc(F)cc1` [Compound 2716], the melting point is 173 to 175 °C.

As to `CS(=O)(=O)COc1ccc2c(C#N)c(-c3ccc(NS(=O)(=O)C4CCC4)cc3)n(C3CCC3)c2c1` [Compound 2993], the melting point was 231 to 237 °C.

`CCn1c(-c2ccc(OC(=O)N(C)CCOC)cc2)c(C#N)c2ccc(OC)cc21` [Compound 1385] displayed a melting point of 122 to 127 °C.

`CCCn1c(-c2ccc(NC(=O)N(CC)CC)cc2)c(C#N)c2ccc(OC)cc21` [Compound 1386] had a melting point of 213 to 214 °C.

As to `Cc1cc(Nc2ccc(-c3c(C#N)c4ccc(Oc5ncccn5)cc4n3C3CCC3)cc2)n(C)n1` [compound 3285, 1-cyclobutyl-2-[4-(2,5-dimethyl-2H-pyrazol-3-ylamino)-phenyl]-6-(pyrimidin-2-yloxy)-1H-indole-3-carbonitrile], the melting point fell in the range of 236 to 238 °C.

`N#Cc1c(-c2ccc(N)cc2)n(C2CC2)c2cc(OC3CCOC3)ccc12` (centres unmarked) [Compound 1443]: the melting point fell in the range of 199 to 201 °C.

`CCCS(=O)(=O)Nc1ccc(-c2c(C#N)c3ccc(N4CCN(CC5CC5)CC4)cc3n2CC)cc1` [Compound 1411]: the melting point is 173 to 174 °C.

In turn, `N#Cc1c(-c2ccc(NS(=O)(=O)C3CCC3)cc2)n(C2CCC2)c2cc(OC3COCOC3)ccc12` [Compound 2919] came in with a melting point of 200 to 204 °C.

In turn, `Cc1ccnc(Oc2ccc3c(C#N)c(-c4ccc(NC(=O)O[C@H](C)C5CC5)cc4)n(C4CCC4)c3c2)n1` [Compound 2913] had a melting point of 172 to 174 °C.

With `CC(OC(=O)Nc1ccc(-c2cc3ccc(Oc4ncccn4)cc3n2C2CCC2)cc1)C(F)(F)F` (centres unmarked) [compound 2888, {4-[1-cyclobutyl-6-(pyrimidin-2-yloxy)-1H-indole-2-yl]-phenyl}-carbamic acid 2,2,2-trifluoro-1-methyl-ethyl ester], the melting point is 99 to 101 °C.

Molecule `CCOc1ccc(-c2c(C#N)c3ccc(N4CCN(C(=O)OC(C)(C)C)CC4)cc3n2CC)cc1` [compound 1337, 4-[3-cyano-2-(4-ethoxyphenyl)-1-ethylindol-6-yl]piperazine-1-carboxylic acid tert-butyl ester] returned a melting point of 183 to 184 °C.

For `N#Cc1c(-c2ccc(Nc3ccccc3Cl)cc2)n(C2CCC2)c2cc(OC3CCOCC3)ccc12` [Compound 3160], the melting point lay in the range of 125 to 128 °C.

For `CCOc1ccc2c(C#N)c(-c3ccc(NC(=O)NC(C)COC)cc3)n(C3CCC3)c2c1` (centres unmarked) [Compound 1441], the melting point lay in the range of 192 to 196 °C.

`CCn1c(-c2ccc(NC(=O)N(CCOC)CCOC)cc2)c(C#N)c2ccc(OCCOC)cc21` [Compound 1382] had a melting point of 110 to 114 °C.

As for `N#Cc1nccnc1Oc1ccc2c(C#N)c(-c3ccc(NS(=O)(=O)C4CCC4)cc3)n(CC3CC3)c2c1` [Compound 3295], the melting point fell in the range of 236 to 238 °C.

For the molecule `CCN(CC)C(=O)Oc1ccc(-c2c(C#N)c3ccc(OC4CCOCC4)cc3n2C2CCC2)cc1` [Compound 2816], the melting point was 137 to 138 °C.

`CC(C)Nc1ccc(-c2c(C#N)c3ccc(OC4CCOC4)cc3n2C2CC2)cc1` (centres unmarked) [Compound 2150] came in with a melting point of 170 to 172 °C.

Molecule `CC(C)OC(=O)Nc1ccc(-c2c(C#N)c3ccc(OC4CCS(=O)(=O)CC4)cc3n2C2CCC2)cc1` [compound 3182, {4-[3-cyano-1-cyclobutyl-6-(1,1-dioxo-hexahydro-1λ^6-thiopyran-4-yloxy)-1H-indol-2-yl]-phenyl}-carbamic acid isopropyl ester] showed a melting point of 245 to 249 °C.

Consider `CS(=O)(=O)Nc1ccc(-c2c(C#N)c3ccc(OC(F)F)cc3n2CC2CCCO2)cc1` (centres unmarked) [compound 1334, N-{4-[3-cyano-6-difluoromethoxy-1-(tetrahydro-furan-2-ylmethyl)-1H-indole-2-yl]-phenyl}-methanesulfonamide], for which the melting point lay in the range of 87 to 88 °C.

The molecule `C[C@@H](OC(=O)Nc1ccc(-c2c(C#N)c3cc(Oc4cnccn4)ccc3n2C2CCC2)cc1)C1CC1` [Compound 2995] had a melting point of 206 to 208 °C.

`CCN(CC)c1nc2ccc(-c3c(C#N)c4ccc(OC)cc4n3CC)cc2s1` [compound 1343, 2-(2-Diethylaminobenzothiazol-6-yl)-1-ethyl-6-methoxy-1H-indole-3-carbonitrile] had a melting point of 155 to 158 °C.

The molecule `C[C@@H](OC(=O)Nc1ccc(-c2c(C#N)c3ccc(Oc4ncccc4C#N)cc3n2C2CC2)cc1)C1CC1` [Compound 3263] returned a melting point of 183 to 185 °C.

In the case of `COCCOc1ccc2c(C#N)c(-c3ccc(C(=O)NC4CC4)cc3)n(C3CCC3)c2c1` [Compound 2760], the melting point lay within 228 to 230 °C.

In turn, `N#Cc1c(-c2ccc(NCCCc3ccccc3)cc2)n(C2CCC2)c2cc(OC3CCOCC3)ccc12` [Compound 3118] yielded a melting point of 105 to 108 °C.

`C[C@@H](OC(=O)Nc1ccc(-c2c(C#N)c3ccc(N4CCCC4)cc3n2C2CC2)cc1)C1CC1` [Compound 2986] registered a melting point of 197 to 202 °C.

Consider `COc1ccnc(Oc2ccc3c(C#N)c(-c4ccc(NC(=O)OC(C)C)cc4)n(C4CCC4)c3c2)n1` [Compound 2739], for which the melting point lay in the range of 179 to 183 °C.

Regarding `N#Cc1c(-c2ccc(NS(=O)(=O)C3CC3)cc2)n(CC2CCCO2)c2cc(OC(F)F)ccc12` (centres unmarked) [Compound 1335], the melting point was 179 to 180 °C.

In turn, `C[C@@H](OC(=O)Nc1ccc(-c2c(C#N)c3ccc(C(=O)N4CCN(C)CC4)cc3n2C2CCC2)cc1)C1CC1` [Compound 3106] registered a melting point of 104 to 106 °C.

The molecule `CC(C)(C)c1csc(Nc2ccc(-c3c(C#N)c4ccc(OC5CCOCC5)cc4n3C3CCC3)cc2)n1` [Compound 3151] registered a melting point of 246 to 248 °C.

`CC(C)NC(=O)COc1ccc(-c2c(C#N)c3ccc(OC4CCOCC4)cc3n2C2CCC2)cc1` [Compound 3109] showed a melting point of 152 to 153 °C.

`C[C@@H](OC(=O)Nc1ccc(-c2cc3ccc(Oc4nccnc4C#N)cc3n2CC2CC2)cc1)C1CC1` [Compound 3283]: the melting point fell in the range of 145 to 147 °C.

`N#Cc1c(-c2ccc(N3CCCCS3(=O)=O)cc2)n(C2CCC2)c2cc(OC3CCOCC3)ccc12` [Compound 3218] gave a melting point of 180 to 187 °C.

In turn, `C[C@@H](OC(=O)Nc1ccc(-c2c(C#N)c3ccc(O[C@H]4CCOC4)cc3n2C2CCC2)cc1)C1CC1` [Compound 2703] displayed a melting point of 166 to 168 °C.
